Experimental data: ChEMBL document CHEMBL3217639, “Property based optimisation of glucokinase activators discovery of the phase IIb clinical candidate AZD1656” (Medchemcomm, 2012)
In brackets after ≈: the same amount, converted by molar mass.

Legend:
[1] = Crystalline solubility of the compound; format: physicochemical
[2] = Apparent permeability from apical to basolateral side in MDCK cells expressing human MDR1; format: ADME, cell-based, Canis lupus familiaris; settings: dog
Rattus norvegicus [3] = species on record: Rattus norvegicus; assay: Unbound clearance in rat; format: ADME, organism-based; settings: in vivo
Canis familiaris = species on record: Canis familiaris; assay: Unbound clearance in dog; format: ADME, organism-based, Canis lupus familiaris; settings: in vivo
Rattus norvegicus [4] = assay: Antidiabetic activity in high fat fed Zucker rat assessed as reduction of AUC of plasma glucose level at 3 mg/kg by oral glucose tolerance test; format: functional; design: scale not given: the % may be the effect or the level left
Hexokinase-4 = target: T1, Hexokinase-4 (Homo sapiens, UniProt P35557); assay: […] of recombinant human pancreatic glucokinase by G-6-P dehydrogenase assay
T1 sequence (P35557 whole entry): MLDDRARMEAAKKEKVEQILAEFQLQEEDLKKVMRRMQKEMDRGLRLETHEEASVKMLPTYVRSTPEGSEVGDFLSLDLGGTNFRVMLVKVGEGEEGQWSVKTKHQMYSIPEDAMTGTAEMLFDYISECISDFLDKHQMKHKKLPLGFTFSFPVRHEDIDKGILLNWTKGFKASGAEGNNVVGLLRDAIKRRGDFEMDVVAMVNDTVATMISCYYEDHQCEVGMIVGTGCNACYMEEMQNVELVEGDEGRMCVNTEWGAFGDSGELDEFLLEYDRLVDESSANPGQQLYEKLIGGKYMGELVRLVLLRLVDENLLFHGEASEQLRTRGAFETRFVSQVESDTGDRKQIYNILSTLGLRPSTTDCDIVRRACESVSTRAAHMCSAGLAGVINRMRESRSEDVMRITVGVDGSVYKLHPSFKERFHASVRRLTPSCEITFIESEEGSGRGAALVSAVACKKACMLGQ

[5] = Lipophilicity, log D of the compound; format: physicochemical; settings: octanol/water
[6] = target: Voltage-gated inwardly rectifying potassium channel KCNH2 (Homo sapiens, UniProt Q12809)
Sequence of Voltage-gated inwardly rectifying potassium channel KCNH2 (Q12809 whole entry): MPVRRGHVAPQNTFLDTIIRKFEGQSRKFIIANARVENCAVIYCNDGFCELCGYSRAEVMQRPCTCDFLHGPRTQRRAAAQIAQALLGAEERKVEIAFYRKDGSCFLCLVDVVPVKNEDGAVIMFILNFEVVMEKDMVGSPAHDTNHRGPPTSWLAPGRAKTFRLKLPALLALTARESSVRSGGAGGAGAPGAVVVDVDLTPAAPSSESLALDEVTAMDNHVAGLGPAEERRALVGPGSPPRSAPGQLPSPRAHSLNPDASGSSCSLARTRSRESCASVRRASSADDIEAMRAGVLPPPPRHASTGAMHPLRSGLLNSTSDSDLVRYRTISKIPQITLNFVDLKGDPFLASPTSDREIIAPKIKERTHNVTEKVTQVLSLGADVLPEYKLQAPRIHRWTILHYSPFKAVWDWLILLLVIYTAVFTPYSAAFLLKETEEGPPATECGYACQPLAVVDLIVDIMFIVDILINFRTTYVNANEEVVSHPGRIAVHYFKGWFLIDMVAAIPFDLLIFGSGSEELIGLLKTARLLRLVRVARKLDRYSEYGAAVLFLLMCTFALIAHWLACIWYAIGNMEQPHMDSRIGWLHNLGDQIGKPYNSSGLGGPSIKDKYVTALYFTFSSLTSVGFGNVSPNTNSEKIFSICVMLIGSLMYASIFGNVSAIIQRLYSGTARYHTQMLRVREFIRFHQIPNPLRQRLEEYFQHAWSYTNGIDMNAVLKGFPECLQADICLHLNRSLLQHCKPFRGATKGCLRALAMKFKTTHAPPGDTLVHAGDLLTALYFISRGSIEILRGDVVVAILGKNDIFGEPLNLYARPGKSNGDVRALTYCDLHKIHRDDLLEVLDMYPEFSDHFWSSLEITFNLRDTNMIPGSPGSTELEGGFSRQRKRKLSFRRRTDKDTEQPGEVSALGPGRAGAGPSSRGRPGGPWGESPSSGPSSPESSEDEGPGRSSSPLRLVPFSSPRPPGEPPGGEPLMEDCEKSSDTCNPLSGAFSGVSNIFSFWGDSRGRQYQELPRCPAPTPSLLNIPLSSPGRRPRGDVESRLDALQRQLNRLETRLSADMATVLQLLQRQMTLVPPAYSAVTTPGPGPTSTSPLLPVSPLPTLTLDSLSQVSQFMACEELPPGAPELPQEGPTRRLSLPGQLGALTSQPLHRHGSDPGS

Salmonella typhimurium = assay: Genotoxicity in Salmonella typhimurium by Ames test; format: toxicity, organism-based; settings: salmonella enterica subsp. enterica serovar typhimurium
[7] = Clearance in rat; format: ADME, organism-based; settings: in vivo
[8] = Volume of distribution at steady state in rat; format: ADME, organism-based; settings: in vivo, read-out: Vdss
[9] = Oral bioavailability in rat; format: ADME, organism-based; settings: in vivo
[10] = Clearance in dog; format: ADME, organism-based, Canis lupus familiaris; settings: in vivo
[11] = Volume of distribution at steady state in dog; format: ADME, organism-based, Canis lupus familiaris; settings: in vivo, read-out: Vdss
[12] = Oral bioavailability in dog; format: ADME, organism-based, Canis lupus familiaris; settings: in vivo
Rattus norvegicus [13] = assay: Antidiabetic activity in high fat fed Zucker rat assessed as reduction of AUC of plasma glucose level at 1 mg/kg by oral glucose tolerance test; format: functional; design: scale not given: the % may be the effect or the level left

| Structure (SMILES) | solubility thermodynamic [1] [µM] | Papp A→B [2] [×10⁻⁶ cm/s] | EC50 (Hexokinase-4) [nM] | logD [5] | IC50 [6] [nM] | other results |
| --- | --- | --- | --- | --- | --- | --- |
| C[C@@H](CO)Oc1cc(Oc2ccc(C(=O)N3CCC3)cc2)cc(C(=O)Nc2ccn(C)n2)c1 | 350 (≈ 158 µg/mL) | 1.2 | – | – | – | CL free (Rattus norvegicus [3]): 480 mL/min/kg; CL free (Canis familiaris): 61 mL/min/kg; Activity (Rattus norvegicus [4]): 24% |
| COC[C@H](C)Oc1cc(Oc2ccc(C(=O)N3CCC3)cc2)cc(C(=O)Nc2ccn(C)n2)c1 | 490 (≈ 228 µg/mL) | 12 | 37 | 2.5 | – | – |
| Cc1cnc(NC(=O)c2cc(Oc3ccc(C(=O)N4CCC4)cc3)cc(O[C@@H](C)CO)c2)cn1 | 17 (≈ 7.86 µg/mL) | 4.1 | 61 | 2.4 | 38000 | – |
| COC[C@H](C)Oc1cc(Oc2ccc(C(=O)N3CCC3)cc2)cc(C(=O)Nc2cnc(C)cn2)c1 | 30 (≈ 14.3 µg/mL) | 29 | 73 | 2.9 | – | – |
| Nc1cc[nH]n1 | – | – | – | – | – | Activity (Salmonella typhimurium): Non-toxic |
| Nc1nccs1 [AMINOTHIAZOLE] | – | – | – | – | – | Activity (Salmonella typhimurium): Non-toxic |
| Cc1cnc(N)cn1 | – | – | – | – | – | Activity (Salmonella typhimurium): Non-toxic |
| Cn1ccc(NC(=O)c2cc(Oc3ccc(C(=O)N4CCC4)cc3)cc(O[C@H]3CCOC3)c2)n1 | 180 (≈ 83.3 µg/mL) | 6.4 | 70 | 2.2 | – | – |
| COC[C@H](C)Oc1cc(Oc2ccc(C(=O)N3CCC3)nc2)cc(C(=O)Nc2cnc(C)cn2)c1 | 21 (≈ 10 µg/mL) | 18 | 36 | 2.9 | 40000 | – |
| COC[C@H](C)Oc1cc(Oc2ncc(C(=O)N3CCC3)cc2Cl)cc(C(=O)Nc2cnc(C)cn2)c1 | 8 (≈ 4.1 µg/mL) | – | 60 | 2.8 | – | – |
| Cn1ccc(NC(=O)c2cc(Oc3ccc(C(=O)N4CCC4)cc3)cc(OC3CCOCC3)c2)n1 | 170 (≈ 81 µg/mL) | – | 170 | – | – | – |
| COC[C@H](C)Oc1cc(Oc2ccc(C(=O)N3CCC3)cn2)cc(C(=O)Nc2cnc(C)cn2)c1 | – | – | 370 | – | – | – |
| Cn1ccc(N)n1 | – | – | – | – | – | Activity (Salmonella typhimurium): Toxic |
| Cc1nsc(N)n1 | – | – | – | – | – | Activity (Salmonella typhimurium): Non-toxic |
| CCn1ccc(N)n1 | – | – | – | – | – | Activity (Salmonella typhimurium): Toxic |
| CCn1ccc(NC(=O)c2cc(Oc3ccc(C(=O)N4CCC4)cc3)cc(O[C@@H](C)CO)c2)n1 | 280 (≈ 130 µg/mL) | 1.6 | 31 | 2.4 | – | – |
| CC(C)n1ccc(N)n1 | – | – | – | – | – | Activity (Salmonella typhimurium): Toxic |
| Cc1nsc(NC(=O)c2cc(Oc3ccc(C(=O)N4CCC4)cc3)cc(O[C@@H](C)CO)c2)n1 | 17 (≈ 7.97 µg/mL) | 5.2 | 35 | 2.7 | 11000 | – |
| CC(C)Oc1cc(Oc2ccc(C(=O)N3CCC3)cc2)cc(C(=O)Nc2ccn(C)n2)c1 | 125 (≈ 54.3 µg/mL) | – | 110 | 3.3 | 27000 | – |
| C[C@@H](CO)Oc1cc(Oc2ccc(C(=O)N3CCC3)cc2)cc(C(=O)Nc2nccs2)c1 | 9 (≈ 4.08 µg/mL) | – | 32 | 3.1 | 9000 | – |
| COC[C@H](C)Oc1cc(Oc2cnc(C(=O)N3CCC3)cn2)cc(C(=O)Nc2cnc(C)cn2)c1 [AZD-1656] | 280 (≈ 134 µg/mL) | 35 | 61 | 2.4 | > 100000 | clearance [7]: 16 mL/min/kg; CL free (Rattus norvegicus [3]): 310 mL/min/kg; Vd [8]: 0.5 L/kg; bioavailability [9]: 100%; clearance [10]: 8.1 mL/min/kg; CL free (Canis familiaris): 50 mL/min/kg; Vd [11]: 1.5 L/kg; bioavailability [12]: 100%; Activity (Rattus norvegicus [13]): 43% |
| CC(C)n1ccc(NC(=O)c2cc(Oc3ccc(C(=O)N4CCC4)cc3)cc(O[C@@H](C)CO)c2)n1 | 44 (≈ 21.1 µg/mL) | – | 73 | 2.8 | 31000 | – |
| C[C@@H](CO)Oc1cc(Oc2ccc(C(=O)N3CCC3)cc2)cc(C(=O)Nc2cc[nH]n2)c1 | 670 (≈ 292 µg/mL) | 0.8 | 53 | 2 | > 100000 | – |
| Cn1ccc(NC(=O)c2cc(Oc3ccc(C(=O)N4CCC4)cc3)cc(OC(CF)CF)c2)n1 | 11 (≈ 5.18 µg/mL) | 7 | 47 | 2.6 | – | – |
